In patent US20210369583A1, “COMPOSITIONS FOR PROVIDING SKIN CARE BENEFITS AND METHODS OF USE” (Danisco US Inc., priority 2018, published 2021):
Marks after values point to notes of the source that are not given here.

What was measured:
Assay type in all cases: cell-based
[1] = tested on: human living skin explant; test: Immunostaining of carbonylated proteins (FTZ) on human living skin explants; conditions: UV irradiated
Protocol: (§1) human skin explants of an average diameter of 12 mm (±1 mm) were prepared on an abdoplasty coming from a person). The explants were kept in survival in BEM culture medium at 37° C. in a humid, 5%-CO2 atmosphere.
(§2) On day 0 (D0), day 1, day 2 and day 3 (3 hours before irradiation), the tested products were applied topically on surface of skin explants at the rate of 2 mg/cm^2, twice a day for D1 and D2 and once on DO and D3. […] The medium was half renewed (1 ml per well) on day 2.
(§3) On D3, the culture media of all the batches was replaced by HBSS solution (Hank's Balanced Saline Solution; 1 ml per explant). The batches “UV” were irradiated by UVA+ UVB using a UV simulator Vibert Lourmat RMX 3W with a dose of 18 J/cm2 of UVA (4 MED, minimal erythemal dose) and 0.3 J/cm2 of UVB (2 MED). The unirradiated batches were kept in HBSS in the dark. At the end of the irradiation the explants were put back in 2 mL of BEM medium.
(§4) After fixation for 24 hours in buffered formalin, the samples were dehydrated and impregnated in paraffin using a Leica PEARL dehydration automat. The samples were embedded using a Leica EG 1160 embedding station. 5-μm-thick sections were made using a Leica RM 2125 Minot-type microtome, and the sections were mounted on Superfrost® histological glass slides. The frozen samples were cut into 7-μm-thick sections using a Leica CM 3050 cryostat. Sections were then mounted on Superfrost® plus silanized glass slides. The microscopical observations were realized using a Leica DMLB or Olympus BX43 microscope. Pictures were digitized with a numeric DP72 Olympus camera with CellD storing software.
Protein carbonylation is a type of protein oxidation that can be promoted by reactive oxygen species (ROS), generated by UV exposure. FTZ marker assay was conducted by immunostaining in the living epidermis of human skin explant as follows: Carbonylated proteins were stained on frozen sections with the anti-carbonylated proteins probe (fluorescein-5-thiosemicarbazid-FTZ) (Lifetechnologies, Ref. F-121) diluted at 0.5 μM in MES-Na+ and incubated for 30 minutes in the dark and at room temperature. The staining was observed by epifluorescence and assessed by microscopical observations. Batches analyzed were T, TUV, P1UV, P2UV, P3UV at day 4 also referred to as TJ4, TUVJ4, P1UVJ4, P2UVJ4, P3UVJ4

[2] = tested on: human living skin explant; test: Cell viability of human living skin explants (UV study); conditions: day 4
Protocol: as §1, §2, §3, §4

[3] = tested on: human living skin explant; test: TUNEL assay (UV-induced DNA damage) on human living skin explants
Protocol: as §1, §2, §3, §4
DNA oxidization is a type of damage that can be promoted by reactive oxygen species (ROS), generated by UV exposure. […] The staining was assessed by microscopical observation. Batches analyzed were T, TUV, P1UV, P2UV, P3UV at day 4 also referred to as TJ4, TUVJ4, P1UVJ4, P2UVJ4, P3UVJ4 (T=Control batch non treated non irradiated; TJ4=T at Day 4 (D4); TUV: control batch non treated UV irradiated; TUVJ4=[…] at Day 4; P1J4: product A 4% non irradiated at D4; P2J4: product A 2% non irradiated at D4; P3J4: product A 1% non irradiated at D4; P1UV: product A 4% UV irradiated; P1UVJ4: product A 4% UV irradiated at D4 P2UV: product A 2% UV irradiated; P2UVJ4: product A 2% UV irradiated at D4; P3UV: product A 1% UV irradiated; P3UVJ4: product A 1% UV irradiated at D4

[4] = tested on: living human skin explants; test: Biochemical assay of MDA (lipid peroxidation) on living human skin explants exposed to pollutants
Protocol: Product A (Table 11) was diluted in water to obtain the following products at concentrations: product P1=A at 4%, product P2=A at 2% and product P3=A at 1%.
59 human skin explants of an average diameter of 14 mm (±1 mm) were prepared on an abdoplasty coming from a person. The explants were kept in survival in BEM culture medium at 37° C. in a humid, 5%-CO2 atmosphere.
The tested products were topically applied on the basis of 2 μl per cm^2 and spread using a small spatula twice a day (morning and evening) on day 0, 1, 2, 3 and 4.
On D4, the explants of the batches ML and PML were placed on the 3D grid with 900 μl of HBSS and placed into the PolluBox® system.
3 mL of the solution <<ML>> (supplemented with 150 μl/ml of NaCl 0.9%) were exposed by vaporization for 1 hour and half, as shown in the figure below.
The MDA assay was realized with an enhanced method of the TBARs (Thiobarbituric Acid Reactive Species) assay. The MDA was assayed in HBSS medium by addition of TBARs solution (thiobarbituric acid, hydrochloric acid and tricholoroacetic acid) and placed in a water bath (80° C. for 15 minutes). A lot of substances (like glucose) which are not related with lipoperoxidation, react with thiobarbituric acid (ThioBarbituric Acid Reagents=TBARS), so to enhance the specificity of the assay, the MDA was extracted by a liquid/liquid extraction with butanol. The MDA in butanol was measured in spectrofluorimetry (excitation: 515 nm, emission: 550 nm) using a Tecan Infinite M200 Pro microplate reader. Using this assay, MDA contained in the culture medium BEMc on […] was measured for the 4 explants per batch. The MDA concentration was expressed in pmol of MDA/ml of the medium. Concerned batches: all batches on day 5, 4 explants per batch.
The average of the blank batch TJ5 was calculated (154.0 nmol/L). Then, for each explant of MLJ5, this average value was subtracted from […]. That corresponds to calculating the delta (increase) of MDA induced by ML for each explant compared to the average of the batch without ML, it is ΔML.
These average deltas were then compared to the average delta of MDA induction without treatment (ΔML).

[5] = tested on: Reconstructed Human Epidermis (RHE); test: Caffein diffusion test on Reconstituted Human Epidermis (RHE); conditions: for caffein diffusion through RHE: systemic treatment
Protocol: By measuring the amount of […] […] The epidermis used was a Reconstructed Human Epidermis, called “RHE”, 0-day-old, batch no 01015-444, placed in culture conditions 37° C., 5% CO2. The assay medium was the Bioalternatives maintenance medium. RHE at Day 0 (when placed at the air/liquid interface) were placed in assay medium containing or not (control) the compounds, the combination or the reference (vitamin C at 200 μg/ml). This is referred to as a systemic application, to be differentiated from a topical application. RHE were then incubated for 7 days with treatment renewal at Day 3 and Day 5. All experimental conditions were performed in n=3. At the end of incubation (Day 7), radioactive […] ([^14[…] applied on the surface of each epidermis. The radioactivity contained in subnatants was measured by liquid scintillation after 30 minutes, 1, 2, 3, 4, 5, 6, 7 and 8 hours of incubation. The barrier function is calculated according to the below formula:

## O=C(O)[C@@H]1CCCN1 [Combination P5, L-Proline]
[1]
  effect on UV-induced carbonylated proteins: slightly inhibits the formation of carbonylated proteins
[2]; UV irradiated
  Cell Viability, variation vs TUVJ4: ↔ (indicates no variation)
[2]; non irradiated
  Cell Viability, variation vs TJ4: ↔ (indicates no variation)
[3]; UV irradiated
  activity against UV-induced DNA damage: totally inhibits the increase of DNA damage
[3]; non irradiated, day 4
  DNA damage (TUNEL), variation vs TJ4: ↔ (indicates no variation)
[4]; MDA induction by pollutants, day 5
  MDA, variation ΔPML vs ΔML: −48%*
[4]; after pollutant exposure (ΔPML vs ΔML)
  reduction of the increase of MDA: 48%
[4]; after pollutants exposure, day 5
  MDA, variation PML vs ML: −14% #

## C[N+](C)(C)CC(=O)O [betaine]
[5]; 0.5 hrs, 10 mg/ml
  Barrier function % Control: 97%
  Mean [14C]-caffein (cpm): 20507 cpm
  [14C]-caffein % Control: 104%
[5]; 1 hrs, 10 mg/ml
  Barrier function % Control: 91%
  Mean [14C]-caffein (cpm): 50356 cpm
  [14C]-caffein % Control: 110%
[5]; 2 hrs, 10 mg/ml
  Barrier function % Control: 85%
  Mean [14C]-caffein (cpm): 117502 cpm
  [14C]-caffein % Control: 117%
[5]; 3 hrs, 10 mg/ml
  Barrier function % Control: 87%
  Mean [14C]-caffein (cpm): 156579 cpm
  [14C]-caffein % Control: 114%
[5]; 4 hrs, 10 mg/ml
  Barrier function % Control: 91%
  Mean [14C]-caffein (cpm): 173278 cpm
  [14C]-caffein % Control: 110%
[5]; 5 hrs, 10 mg/ml
  Barrier function % Control: 92%
  Mean [14C]-caffein (cpm): 186588 cpm
  [14C]-caffein % Control: 108%
[5]; 6 hrs, 10 mg/ml
  Barrier function % Control: 93%
  Mean [14C]-caffein (cpm): 193499 cpm
  [14C]-caffein % Control: 107%
[5]; 7 hrs, 10 mg/ml
  Barrier function % Control: 96%
  Mean [14C]-caffein (cpm): 196233 cpm
  [14C]-caffein % Control: 104%
[5]; 8 hrs, 10 mg/ml
  Barrier function % Control: 99%
  Mean [14C]-caffein (cpm): 195439 cpm
  [14C]-caffein % Control: 101%
[5]; 3 mg/ml
  caffein diffusion through RHE: induced a decrease of caffein diffusion through the RHE only after 30 minutes
[5]; 10 mg/ml
  caffein diffusion through RHE: No inhibitory effect

## O=C1O[C@H]([C@@H](O)CO)C(O)=C1O [vitamin C]
[5]; 200 μg/ml
  caffein diffusion through RHE: decreased significantly this diffusion
